Data: patent publication US7662775B2 (Astellas Pharma Inc., priority 2000, dated 2010)

Assays:
[1] = tested on: SD rats; assay: Glucose tolerance test for SD rats (Example 9); type: in vivo, rat; settings: 100 mg/kg intraperitoneally 5 minutes before 2 g/kg oral glucose, 30 minutes after glucose, p<0.05 vs control
Procedure: (§1) SD rats (4 weeks old; CLEA JAPAN) were forced to fast overnight, and 2 g/kg of glucose was orally administered. 100 mg/kg of 2-(pyridine-4-yl)ethyl thiobenzoate (LT-1 Z 0059519) had been intraperitoneally administered 5 minutes before the glucose administration. An appropriate amount of blood was taken 0 minute, 30 minutes, 60 minutes, and 120 minutes after the glucose administration, and used for the measurement of a blood glucose level and a concentration of plasma insulin.
(§2) For measuring the blood glucose level, a supernatant obtained by mixing blood and 0.33 mol/L perchloric acid (blood:0.33 mol/L perchloric acid=1:10) and centrifuging the mixture (3000×g, 10 minutes, 4° C.) was used. For measuring the concentration of plasma insulin, a supernatant obtained by centrifuging blood (3000×g, 10 minutes, 4° C.) was used. Further, Glucose C test Wako (Wako) was used in the measurement of the blood glucose level, and a rat insulin assay system (Amersham) was used in the measurement of the concentration of plasma insulin.
FIG. 1 illustrates a time course of the concentration of plasma insulin (unit=ng/mL) after the oral administration of glucose, and FIG. 2 illustrates a time course of the blood glucose level (unit=mg/dL) after the oral administration of glucose. […]

[2] = target: T1, polypeptide consisting of the amino acid sequence of SEQ ID NO: 2 (Homo sapiens, UniProt Q8TDV5); assay: CRE-luciferase reporter screening in transfected 293-EBNA cells (Example 7); type: cell-based; settings: 293-EBNA cells transfected with pEF-BOS-NA and pCRE-Luc; 5-6 hours incubation; read-out: EC50 value (increase of reporter activity)
T1 construct: expressed in transfected cells; host or cells: 293-EBNA cells, transient transfection with plasmid pEF-BOS-NA
T1 sequence (Q8TDV5 1-335): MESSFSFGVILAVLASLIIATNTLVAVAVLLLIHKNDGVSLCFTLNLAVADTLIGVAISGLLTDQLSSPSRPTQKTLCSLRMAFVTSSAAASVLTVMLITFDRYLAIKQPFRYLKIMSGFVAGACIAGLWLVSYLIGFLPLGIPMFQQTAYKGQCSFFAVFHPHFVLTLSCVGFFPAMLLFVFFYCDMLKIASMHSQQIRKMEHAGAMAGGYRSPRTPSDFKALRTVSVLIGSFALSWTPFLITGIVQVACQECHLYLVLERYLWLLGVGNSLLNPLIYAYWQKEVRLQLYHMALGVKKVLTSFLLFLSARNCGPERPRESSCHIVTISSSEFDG
Procedure: (§3) The pEF-BOS-NA plasmid used in Example 6 was also used in the present Example.
293-EBNA cells, (1×10^4 cells/well) were seeded on a 96-well plate coated with collagen, and cultured overnight in a Dulbecco modified Eagles' medium (DMEM) containing 10% fetal calf serum (FCS). Then, a transfection reagent (LIPOFECTAMINE 2000; GIBCO BRL) was used to transfect 0.01 ng of a plasmid pEF-BOS-NA or a plasmid pEF-BOS (negative control vector) and 5 ng of a pCRE-Luc vector (CLONTECH) to the cells. […] After the medium was aspirated, the cells were lysed with a cell lysing solution (cell lysis buffer LCβ; Toyo Ink Mfg.). A luciferase activity of the lysate was measured by a commercially available measuring kit (PicaGene Luminescent kit; Toyo Ink Mfg.) and a measuring apparatus (ML3000 microtiter plate luminometer; Dynatech Laboratories).

[3] = tested on: mouse pancreatic β cell line MIN6; assay: Insulin secretion from mouse pancreatic β cell line MIN6, Part 1 (Example 8); type: cell-based; settings: MIN6 cells, 20 minutes
Procedure: MIN6 cells (2×10^5 cells) were seeded on a 24-well plate, and cultured for 2 days in a DMEM containing 10% FCS. The medium was aspirated, and the cells were washed with KRB-HEPES (140 mmol/L NaCl, 3.6 mmol/L KC1, 0.5 mmol/L NaH2PO4, 0.5 mmol/L MgSO4, 1.5 mmol/L CaCl2, 10 mmol/L Hepes, 2 mmol/L NaHCO3, 0.1% BSA, pH7.4). After 2.8 mmol/L glucose-containing KRB-HEPES (1 ml) was added, the whole was incubated at 37° C. for 30-60 minutes in the presence of 5% CO2.
After the buffer was aspirated, one of the four compounds obtained by the screening in Example 7, i.e., 2-(pyridine-4-yl)ethyl thiobenzoate, in the form of a solution (0.5 ml) prepared by diluting the compound with 2.8 mmol/L or 16.8 mmol/L glucose-containing KRB-HEPES, was added, and the whole was incubated at 37° C. for 20 minutes in the presence of 5% CO2. A supernatant was used for measuring an amount of insulin secreted.
(§4) A commercially available insulin radioimmunoassay kit (Phadeseph insulin; Pharmacia Upjohn) was used for the measurement of the amount of insulin secreted.

[4] = tested on: GK (Goto-Kakizaki) rats; assay: Glucose tolerance test for GK rats, type II diabetes model (Example 9); type: in vivo, rat; settings: 100 mg/kg orally administered, 2 g/kg oral glucose, 30 and 60 minutes after glucose
Procedure: as §1, §2
Then, a glucose tolerance test for GK (Goto-Kakizaki) rats (type II diabetes models with incomplete insulin secretion; 7 weeks old; Charles River Japan) by one oral dose was carried out. […]

[5] = target: T1, polypeptide consisting of the amino acid sequence of SEQ ID NO: 2; assay: CRE-luciferase reporter screening in transfected 293-EBNA cells (Example 10); type: cell-based; settings: 293-EBNA cells transfected with pEF-BOS-NA and pCRE-Luc; 6 hours; specific versus pEF-BOS control vector
Procedure: as §3
293-EBNA cells (7×10^4 cells/well) were seeded on a 24-well plate coated with collagen, and cultured overnight in a Dulbecco modified Eagles' medium (DMEM) containing 1% fetal calf serum (FCS). Then, a transfection reagent (LIPOFECTAMINE 2000; GIBCO BRL) was used to transfect 0.1 ng of a plasmid pEF-BOS-NA or a plasmid pEF-BOS (negative control vector) and 20 ng of a pCRE-Luc vector (CLONTECH) to the cells. The transfected cells were further cultured for 18-20 hours, and then a test compound diluted with a medium containing 0.1% BSA was added, and the whole was incubated at 37° C. for 6 hours in the presence of 5% CO2. After the medium was aspirated, the cells were lysed with a cell lysing solution (cell lysis buffer LCβ; Toyo Ink Mfg.). A luciferase activity of the lysate was measured by a commercially available measuring kit (PicaGene Luminescence kit; Toyo Ink Mfg.) and a measuring apparatus (ML3000 microtiter plate luminometer; Dynatech Laboratories).
L-α-lysophosphatidylcholine oleoyl (L1881; SIGMA), a biocomponent, could be obtained.

[6] = target: T1, polypeptide consisting of the amino acid sequence of SEQ ID NO: 2; assay: Intracellular cAMP amount in transfected 293-EBNA cells, enzymeimmunoassay (Example 11); type: cell-based; settings: 293-EBNA cells transfected with pEF-BOS-NA; 1 mmol/L IBMX; 30 minutes
Procedure: as §3
293-EBNA Cells (1×10^4 cells/well) were seeded on a 96-well plate coated with collagen, and cultured for 24 hours. Then, a transfection reagent (LIPOFECTAMINE 2000; GIBCO BRL) was used to transfect 3 ng of a plasmid pEF-BOS-NA or a plasmid pEF-BOS (negative control vector) to the cells. The transfected cells were further cultured for 20 hours, and the medium was aspirated. After 80 μL of 1 mmol/L IBMX (3-isobutyl-1-methylxanthine)/0.1% BSA/DMEM was added, the whole was incubated at 37° C. for 10 minutes in the presence of 5% CO2. Then, a test compound diluted with 20 μL of 1 mmol/L IBMX/0.1% BSA/DMEM was added, and the whole was incubated for 30 minutes. After the medium was aspirated, the resulting cells were used for the measurement of an amount of cAMP. A commercially available cAMP enzymeimmunoassay system (cyclic AMP kit; Nihon Schering) was used to measure the amount of cAMP.

[7] = tested on: mouse pancreatic β cell line MIN6; assay: Insulin secretion from mouse pancreatic β cell line MIN6, Part 2 (Example 12); type: cell-based; settings: MIN6 cells, 16.8 mmol/L glucose, 30 minutes
Procedure: MIN6 cells (2.5×10^5 cells) were seeded on a 24-well plate coated with collagen, and cultured for 2 days in a DMEM containing 10% FCS (Cat. No. 11995-065; GIBCO BRL). The medium was aspirated, and 0.4 mL of a glucose-free DMEM containing 10% FCS (Cat. No. 11966-025; GIBCO BRL) was added. The whole was incubated at 37° C. for 2 hours in the presence of 5% CO2.
After the medium was aspirated, 0.5 mL of a solution of L-α-lysophosphatidylcholine oleoyl, the compound selected by the screening method in Example 10, diluted with 2.8 mmol/L or 16.8 mmol/L glucose-containing DMEM (Cat. No. 11966-025; GIBCO BRL) was added, and the whole was incubated at 37° C. for 30 minutes in the presence of 5% CO2. A supernatant was used for measuring an amount of insulin secreted.
as §4

| Compound | concentration of plasma insulin [1] | increase of the blood glucose level by the glucose administration [1] | EC50 [2] [µM] | amount of insulin secreted ([3]; 2.8 mmol/L glucose) | amount of insulin secreted ([3]; 16.8 mmol/L glucose) | increase of the blood glucose level by the glucose administration [4] | reporter activity (luciferase) [5] | amount of cAMP [6] | amount of insulin secreted [7] |
| --- | --- | --- | --- | --- | --- | --- | --- | --- | --- |
| O=C(SCCc1ccncc1)c1ccccc1 | significant increase | significantly suppressed | 3.2 | did not cause an increase | caused an increase | significantly suppressed |  |  |  |
| CCCCCCCC/C=C\CCCCCCCC(=O)OC[C@@H](O)COP(=O)([O-])OCC[N+](C)(C)C [L-α-lysophosphatidylcholine oleoyl] |  |  |  |  |  |  | increase of a reporter activity specifically in cells | exhibited an increase of the amount of cAMP specifically in the cells | caused an increase |
